Target: T1, PA1396 (Pseudomonas aeruginosa, UniProt Q9I3U8)
T1 construct: reporter rows: PA1396 in P. aeruginosa cells
Test: auto-phosphorylation in liposomes, […] SDS-PAGE
Type: biochemical
Conditions: 10 mM MgCl2, 1 mM DTT, room temperature, 10 min

T1 sequence (Q9I3U8 entry or part of it): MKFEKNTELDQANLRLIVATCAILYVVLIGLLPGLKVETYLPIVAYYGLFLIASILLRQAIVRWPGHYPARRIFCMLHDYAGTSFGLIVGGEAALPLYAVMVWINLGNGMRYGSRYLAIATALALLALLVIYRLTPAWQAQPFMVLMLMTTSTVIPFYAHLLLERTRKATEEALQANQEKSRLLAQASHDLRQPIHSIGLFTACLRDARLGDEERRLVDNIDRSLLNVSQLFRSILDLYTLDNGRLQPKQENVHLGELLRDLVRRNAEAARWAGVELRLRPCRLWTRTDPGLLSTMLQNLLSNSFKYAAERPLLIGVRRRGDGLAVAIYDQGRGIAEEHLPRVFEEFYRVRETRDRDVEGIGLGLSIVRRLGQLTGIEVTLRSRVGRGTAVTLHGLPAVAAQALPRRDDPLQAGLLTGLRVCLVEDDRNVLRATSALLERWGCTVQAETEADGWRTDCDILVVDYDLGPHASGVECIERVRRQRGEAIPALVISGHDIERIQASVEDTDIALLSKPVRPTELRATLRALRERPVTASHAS

Compound | auto-phosphorylation in liposomes, 32P SDS-PAGE (agonist, 10 µM) | auto-phosphorylation in liposomes, 32P SDS-PAGE (antagonist against 10 µM DSF)
CC(C)CCCCCCC/C=C\C(=O)O [C1, cis-11-methyl-2-dodecenoic acid] | addition of DSF to PA1396-loaded liposomes led to a robust increase in the level | 
CC(C)CCCCCCC/C=C\C(=O)NS(C)(=O)=O [C23, (Z)-11-methyl-N-(methylsulfonyl)dodec-2-enamide] |  | C23 blocks the recognition of DSF by PA1396
